Where “and” joins values, the source holds several entries; their conditions need not be identical. Equal values may be shown once.

The subject of data set [1] is human proliferative or cytotoxic T cell responses. Put plainly: Mixed leukocyte culture reactions (MLC). Type of data set: cell-based. The settings on record: 500 GIA units/ml.
Data set [2] concerns A375 cells. Put plainly: Growth inhibition assay (A375 proliferation; synergy tests). Type of data set: cell-based, human. The note with it: 1.8 U/ml, alone. Here is the method: A375 melanoma cells (4×10^3 cells/50 μl), Mv1Lu mink lung epithelial cells (3.5×10^3 cells/50 μl), or other cell line of interest at an appropriate cell density were subcultured for four hours on flat-bottomed 96-well tissue culture plates (Costar 3596, Cambridge, Mass.) in growth medium comprising Dulbecco's modified Eagle's medium (DMEM), supplemented with 10% heat-in-activated fetal bovine serum, and P/S. Test samples to be assayed for growth inhibition were diluted in growth medium and assayed in triplicate with 50 μl of the diluted sample added to each well. The cells were incubated for 72 hours at 37° C.
The growth inhibitory activity of highly purified TGF-β1, recombinant gamma-interferon (rIFN-γ), and Oncostatin M on A375 cells was determined, and possible synergy between TGF-β1 and Oncostatin M, TGF-β1 and rIFN-γ, and Oncostatin M and rIFN-γ in inhibiting A375 proliferation was tested. […] is expressed in units of Mv1Lu growth inhibitory activity, rIFN-γ in units of anti-viral activity and Oncostatin M in units of A375 growth inhibitory activity. Concentrations of TGF-β1 (1-30 U/ml) and Oncostatin M (0.5-10 U/ml) were chosen which caused either no or only minimal growth inhibition when tested individually.

Data set [3] concerns γ-interferon-sensitive human tumor cell line. The data set can be described thus: Cytotoxic activity against a γ-interferon-sensitive tumor line. Type of data set: cell-based.
Data set [4] relates to A375 tumor cells. The data set can be described thus: Inhibition of growth of A375 tumors in nude mice. The note with it: for Cumulative Tumor Size: 3 mice. Type of data set: in vivo. Here is the method: A375 tumor cells (2.3×10^6) or an appropriate number of cells of another cell line of interest were injected subcutaneously in the interscapular region of nude mice. When the tumors became palpable, half of the mice were inoculated subcutaneously proximal to the tumor with either (a) 100 μl PBS containing 1.6 μg bovine serum albumin (BSA) or (b) 100 μl PBS containing 1.6 μg BSA plus the test sample. The mice were inoculated in the same manner every 2-3 days until about 19 days after the first inoculation. The diameter and width of each tumor was measured every 2-3 days using calipers.
Six nude mice were injected with A375 cells as described in Example 1D, above. After the tumors became palpable, the mice were injected, proximal to the tumor, with PBS (control) or PBS containing 400 ng Oncostatin M, three mice in each group.
The cumulative sizes (mm^2) of the tumors in each group of three mice were determined every 2-3 days.

Turning to “Oncostatin M: Human polypeptide growth regulator produced by activated leukocytes; apparent molecular weight approximately 28 kD by PAGE”, the “Proliferative or cytotoxic T cell responses in MLC” value in data set [1] is on record as “does not suppress”. Besides, the “Inhibition of cell growth” value in data set [2] stood at 12%. For the same substance, the Cytotoxic activity result in data set [3] is listed as “lacks cytotoxic activity”. Moreover, the “Tumor size relative to control animals” value in data set [4] (400 ng Oncostatin M vs PBS) is reported as “about half the size of those in control animals”. Further, the “Tumor weight relative to control-treated mice” value in data set [4] (400 ng Oncostatin M vs PBS, after 21 days) is “approximately one-third the weight of the tumors from the control-treated mice”. Further, the “Cumulative Tumor Size” value in data set [4] (day 0 after treatment, 400 ng, PBS 70) is given as 50 mm^3; in data set [4] (day 3 after treatment, 400 ng, PBS 116), 64 mm^3; in data set [4] (day 5 after treatment, 400 ng, PBS 130), 66 mm^3; in data set [4] (day 7 after treatment, 400 ng, PBS 160) it was 90 mm^3; in data set [4] (day 10 after treatment, 400 ng, PBS 180), 88 mm^3; in data set [4] (day 12 after treatment, 400 ng, PBS 210), 100 mm^3. The “Cumulative Tumor Size” value in data set [4] (day 14 after treatment, 400 ng, PBS 268) amounted to 116 mm^3; in data set [4] (day -1 after treatment, 400 ng s.c. proximal to tumor every 2-3 days, PBS 30) it was 30 mm^3. For the same substance, the “Tumor Wt” value in data set [4] (individual mice (No. 94, 97, 95) after 21 days, PBS mice 540, 440, 480) was 100 mg and 140 mg and 200 mg.

The values above are taken from patent publication US5451506A, “Oncostatin M and novel compositions having anti-neoplastic activity” (Oncogen Limited Partnership, priority 1993, dated 1995).
